Data reported in patent US7521418B2, “Use of a polyene macrolide antifungal agent in combination with a glycopeptide antibacterial agent” (Theravance, Inc., priority 2003, dated 2009).

Columns and labels:
Assay in all cases: Checkerboard MIC assay, FICI
C. tropicalis ATCC 750 = assay type: cell-based, Candida tropicalis; conditions: combination with Compound 1; C. tropicalis ATCC 750
Source text: (§1) The following assay was used to determine the minimum inhibitory concentration (MIC) and fractional inhibitory concentration index (FICI) for combinations of an antifungal agent and a glycopeptide antibacterial agent. This assay and methods for calculating FICI are well known in the art. See, for example, Eliopoulos, E. G. and R. Moellering, Jr. “Antimicrobial Combinations” in Antibiotics in Laboratory Medicine, edited by V. Lorian, 4th Ed., Williams & Wilkins, Baltimore, MD, pp. 330-396 (1996); […] et al., Antimicrobial Agents and Chemotherapy 47(4):1416-1418 (2003); or […] et al., Antimicrobial Agents and Chemotherapy 46(10):3323-3326 (2002). Procedures, protocols, supplies and equipment used in this assay follow the recommendations approved and published by the National Committee for Clinical Laboratory Standards (NCCLS), Wayne, Pa. as described in NCCLS 2003, “Reference Method for Broth Dilution Antimicrobial Susceptibility Tests for Bacteria that Grow Aerobically; Approved Standard” (NCCLS document M7-A6); NCCLS 2002, “Reference Method for Broth Dilution Antifungal Susceptibility Tests of Filamentous Fungi that Grow Aerobically; Approved Standard” (NCCLS document M38-A); and NCCLS 2002 “Reference Method for Broth Dilution Antifungal Susceptibility Tests of Yeast; Approved Standards-2nd Edition” (NCCLS document M27-A2). Using a checkerboard method, a 2-fold dilution 100× final concentration master plate was prepared using a 96-well U-shape microtiter plate and an appropriate solvent. In the “checkerboard” method, a microtiter plate is divided into “columns” in which each well in the column contains the same amount of an antifungal agent (Compound A) being diluted along the x-axis, and “rows” in which each well in the row contains the same amount of a glycopeptide antibacterial agent (Compound B) being diluted on the y-axis. Also included is a row (or column) for Compound A or B alone. The dilutions used in the checkerboard are exponential (by powers of two). The result is that each well in the microtiter plate contains a unique concentration of the two compounds being tested. […] After mixing, 100 μL of 2× drug combinations were distributed into 96-well microtiter plates. […] Compound A was not added to Column 12, so Column 12 contained only Compound B. Compound B was diluted from row A starting at 6,400 μg/mL down to row G (100 μg/mL). Wells in Row A contained a final concentration of 64 μg/mL of Compound B; Row B contained a final concentration of 32 μg/mL of Compound B; Row C contained a final concentration of 16 μg/mL of Compound B; etc. Compound B was not added to Row H, so Row H only contained Compound A. […] The MIC of the glycopeptide antibacterial agent determined from this experiment was used in FIC calculations. […] RPMI-1640 without sodium bicarbonate media (GIBCO-BRL, Carlsbad, Calif.), an enriched media formulated for mammalian cells, was used according to the NCCLS guidelines for yeast and filamentous fungi susceptibility testing. The medium was buffered with 0.165 M 3-[N-Morpholino]propanesulfonic acid (MOPS) supplemented with 20 g/L glucose and pH adjusted to 7.0 with hydrogen chloride. Sabouraud Dextrose Agar ([…] plates, and Potato Dextrose Agar (PDA) plates were purchased from Hardy Diagnostic (Santa Maria, Calif.). Yeast cultures were started from -80° C. frozen stock streaked on […] incubated at 35° C. under aerobic conditions for 24 h. The […] in the refrigerator for up to 2 weeks and used regularly as a starting culture. About 24 to 48 h before each assay was run, yeasts were streaked on SDA plates for isolated colonies. To prepare the inoculum, from one to four colonies were resuspended in 5 mL of saline, and vortexed for 15 sec. […] For most yeast and mold cultures, the optical density (OD) of the suspension was adjusted to 0.11 in saline to provide 0.4×10^6 CFU/mL. However, for Fusarium moniliforme and Pseudallescheria boydii the OD of the suspension was adjusted to OD=0.17 to provide 0.4×10^6 CFU/mL. […]

C. neoformans ATCC 56991 = assay type: cell-based, Cryptococcus neoformans; conditions: combination with Compound 1
Source text: The following assay was used to determine the minimum inhibitory concentration (MIC) and fractional inhibitory concentration index (FICI) for combinations of an antifungal agent and a glycopeptide antibacterial agent. This assay and methods for calculating FICI are well known in the art. See, for example, Eliopoulos, E. G. and R. Moellering, Jr. “Antimicrobial Combinations” in Antibiotics in Laboratory Medicine, edited by V. Lorian, 4th Ed., Williams & Wilkins, Baltimore, MD, pp. 330-396 (1996); […] et al., Antimicrobial Agents and Chemotherapy 47(4):1416-1418 (2003); or […] et al., Antimicrobial Agents and Chemotherapy 46(10):3323-3326 (2002). […] The MIC of the glycopeptide antibacterial agent determined from this experiment was used in FIC calculations. […]

C. krusei ATCC 32672 = assay type: cell-based, Candida krusei; conditions: combination with Compound 1; C. krusei ATCC 32672
Source text: as §1

Row | Compound | FICI (C. tropicalis ATCC 750) | FICI (C. neoformans ATCC 56991) | FICI (C. krusei ATCC 32672)
1 | C[C@@H]1[C@H](O)[C@@H](C)/C=C/C=C/C=C/C=C/C=C/C=C/C=C/[C@H](O[C@@H]2O[C@H](C)[C@@H](O)[C@H](N)[C@@H]2O)C[C@@H]2O[C@](O)(C[C@@H](O)C[C@@H](O)[C@H](O)CC[C@@H](O)C[C@@H](O)CC(=O)O[C@H]1C)C[C@H](O)[C@H]2C(=O)O [Amphotericin B] | 0.27 | 0.25 | 0.31
2 | C[C@@H]1[C@H](O)[C@@H](C)/C=C/C=C/CC/C=C/C=C/C=C/C=C/C(O[C@H]2O[C@H](C)[C@@H](O)[C@H](N)[C@@H]2O)CC2O[C@](O)(CC(O)C(O)CCC(O)CC(O)CC(O)CC(=O)O[C@H]1C)CC(O)C2C(=O)O (stereo partly drawn) [Nystatin] | 0.31 | 0.5 | 0.50
